Values of other authors, collected in patent US9067940B2, “Alicyclic derivatives of N,N'-substituted 3,7-diazabicyclo[3.3.1]nonanes and medicaments based thereon” (priority 2011, dated 2015).
Each block holds one molecule with its values, some of them ahead of it.

Key:
AMPA receptors [1] = conditions: adult rats, 0.3-3 mg/kg
AMPA receptors [2] = system: AMPA receptors
AMPA receptors [3] = conditions: only at high concentrations
[4] = mice suffering from diabetes
[5] = behavioral models

Molecule: O=C(c1ccc2c(c1)OCCO2)N1CCCCC1 [CX546]
social memory (AMPA receptors [1]): improves social memory

effect on synaptic signal at several hippocampus sites (AMPA receptors [2]): enhances the synaptic signal
concentration at which the clinical effect is manifested (AMPA receptors [3]): 0.1 mM
Molecule: COc1ccc(C(=O)N2CCCC2=O)cc1 [aniracetam]
effect on NMDA-mediated signals (NMDA-mediated signals): no effect

aniracetam-like effects (AMPA receptors [2]; metabolite of aniracetam): no aniracetam-like effects
Molecule: COc1ccc(C(=O)NCCCC(=O)O)cc1 [anisoyl-GABA]

B1: BDNF: brain-derived neurotrophic factor, a neural tissue growth factor (protein, UniProt P23560 19-247, looked up)
Neurotrophic factor BDNF …: APMKEANIRGQGGLAYPGVRTHGTLESVNGPKAGSRGLTSLADTFEHVIEELLDEDQKVRPNEENNKDADLYTSRVMLSSQVPLEPPLLFLLEEYKNYLDAANMSMRVRRHSDPARRGELSVCDSISEWVTAADKKTAVDMSGGTVTVLEKVPVSKGQLKQYFYETKCNPMGYTKEGCRGIDKRHWNSQCRTTQSYVRALTMDSKKRIGWRFIRIDTSCVCTLTIKRGR
blood glucose concentration [4]: reduce the blood glucose concentration
antidepressant effect [5]: antidepressant effect
